From ChEMBL document CHEMBL3864140, “Melanogenesis inhibitory activity of a 7-O-9'-linked neolignan from Alpinia galanga fruit” (Bioorg Med Chem, 2016)
pIC50: −log10 of the molar value.

Legend:
[1] = Antimelanogenic activity in theophylline-stimulated mouse B16-4A5 cells assessed as inhibition of melanogenesis at 300 uM after 72 hrs relative to control; assay type: functional; conditions: B16-4A5, 72 h
[2] = Antimelanogenic activity in theophylline-stimulated mouse B16-4A5 cells assessed as inhibition of melanogenesis at 1000 uM after 72 hrs relative to control; assay type: functional; conditions: B16-4A5, 72 h
[3] = Cytotoxicity against theophylline-stimulated mouse B16-4A5 cells assessed as cell viability at 30 uM after 72 hrs by MTT assay relative to control; assay type: toxicity; conditions: theophylline-stimulated B16-4A5 cells, read-out: Activity
[4] = Cytotoxicity against theophylline-stimulated mouse B16-4A5 cells assessed as cell viability at 100 uM after 72 hrs by MTT assay relative to control; assay type: toxicity; conditions: theophylline-stimulated B16-4A5 cells, read-out: Activity
[5] = Cytotoxicity against theophylline-stimulated mouse B16-4A5 cells assessed as cell viability at 300 uM after 72 hrs by MTT assay relative to control; assay type: toxicity; conditions: theophylline-stimulated B16-4A5 cells, read-out: Activity
[6] = Cytotoxicity against theophylline-stimulated mouse B16-4A5 cells assessed as cell viability at 1000 uM after 72 hrs by MTT assay relative to control; assay type: toxicity; conditions: theophylline-stimulated B16-4A5 cells, read-out: Activity
cells [7] = conditions: Mus musculus, B16-4A5, 72 h, read-out: INH
Description: Antimelanogenic activity in theophylline-stimulated mouse B16-4A5 cells assessed as inhibition of melanogenesis at 30 uM after 72 hrs relative to control

cells [8] = conditions: Mus musculus, B16-4A5, 72 h, read-out: INH; remark: listed apart in the source
[9] = Antimelanogenic activity in theophylline-stimulated mouse B16-4A5 cells assessed as inhibition of melanogenesis at 0.3 uM after 72 hrs relative to control; assay type: functional; conditions: B16-4A5, 72 h
[10] = Antimelanogenic activity in theophylline-stimulated mouse B16-4A5 cells assessed as inhibition of melanogenesis at 1 uM after 72 hrs relative to control; assay type: functional; conditions: B16-4A5, 72 h
[11] = Antimelanogenic activity in theophylline-stimulated mouse B16-4A5 cells assessed as inhibition of melanogenesis at 3 uM after 72 hrs relative to control; assay type: functional; conditions: B16-4A5, 72 h
[12] = Antimelanogenic activity in theophylline-stimulated mouse B16-4A5 cells assessed as inhibition of melanogenesis at 10 uM after 72 hrs relative to control; assay type: functional; conditions: B16-4A5, 72 h
[13] = Antimelanogenic activity in theophylline-stimulated mouse B16-4A5 cells assessed as inhibition of melanogenesis after 72 hrs relative to control; assay type: functional, cell-based
[14] = Cytotoxicity against theophylline-stimulated mouse B16-4A5 cells assessed as cell viability at 0.3 uM after 72 hrs by MTT assay relative to control; assay type: toxicity; conditions: theophylline-stimulated B16-4A5 cells, read-out: Activity
[15] = Cytotoxicity against theophylline-stimulated mouse B16-4A5 cells assessed as cell viability at 1 uM after 72 hrs by MTT assay relative to control; assay type: toxicity; conditions: theophylline-stimulated B16-4A5 cells, read-out: Activity
[16] = Cytotoxicity against theophylline-stimulated mouse B16-4A5 cells assessed as cell viability at 3 uM after 72 hrs by MTT assay relative to control; assay type: toxicity; conditions: theophylline-stimulated B16-4A5 cells, read-out: Activity
[17] = Cytotoxicity against theophylline-stimulated mouse B16-4A5 cells assessed as cell viability at 10 uM after 72 hrs by MTT assay relative to control; assay type: toxicity; conditions: theophylline-stimulated B16-4A5 cells, read-out: Activity
[18] = Potency index, ratio of arbutin IC50 to compound IC50 for antimelanogenic activity in mouse B16-4A5 cells; assay type: functional
[19] = Downregulation of tyrosinase expression in theophylline-stimulated mouse B16-4A5 cells assessed as ratio of tyrosinase mRNA expression to beta-actin mRNA expression at 3 uM after 72 hrs by qRT-PCR analysis (reference value: […] +/- […]); assay type: functional, cell-based
[20] = Downregulation of tyrosinase expression in theophylline-stimulated mouse B16-4A5 cells assessed as ratio of tyrosinase mRNA expression to beta-actin mRNA expression at 10 uM after 72 hrs by qRT-PCR analysis (reference value: […] +/- […]); assay type: functional, cell-based
[21] = Downregulation of TRP1 expression in theophylline-stimulated mouse B16-4A5 cells assessed as ratio of TRP1 mRNA expression to beta-actin mRNA expression at 3 uM after 72 hrs by qRT-PCR analysis (reference value: […] +/- […]); assay type: functional, cell-based
[22] = Downregulation of TRP1 expression in theophylline-stimulated mouse B16-4A5 cells assessed as ratio of TRP1 mRNA expression to beta-actin mRNA expression at 10 uM after 72 hrs by qRT-PCR analysis (reference value: […] +/- […]); assay type: functional, cell-based
[23] = Downregulation of TRP2 expression in theophylline-stimulated mouse B16-4A5 cells assessed as ratio of TRP2 mRNA expression to beta-actin mRNA expression at 3 uM after 72 hrs by qRT-PCR analysis (reference value: […] +/- […]); assay type: functional, cell-based
[24] = Downregulation of TRP2 expression in theophylline-stimulated mouse B16-4A5 cells assessed as ratio of TRP2 mRNA expression to beta-actin mRNA expression at 10 uM after 72 hrs by qRT-PCR analysis (reference value: […] +/- […]); assay type: functional, cell-based

SMILES | inhibition at 0.3 µM [9] [%] | inhibition at 1 µM [10] [%] | inhibition at 3 µM [11] [%] | inhibition at 10 µM [12] [%] | pIC50 [13] | viability at 72 h, 0.3 µM [14] [%] | viability at 72 h, 1 µM [15] [%] | viability at 72 h, 3 µM [16] [%] | viability at 72 h, 10 µM [17] [%] | Ratio IC50 [18] | Ratio [19] | Ratio [20] | Ratio [21] | Ratio [22] | Ratio [23] | Ratio [24] | also measured
OC[C@H]1O[C@@H](Oc2ccc(O)cc2)[C@H](O)[C@@H](O)[C@@H]1O [ARBUTIN] | – | – | – | – | – | – | – | – | – | – | – | – | – | – | – | – | inhibition at 300 µM [1]: 61.5%; inhibition at 1000 µM [2]: 83.7%; viability at 72 h, 30 µM [3]: 82.4%; viability at 72 h, 100 µM [4]: 78.1%; viability at 72 h, 300 µM [5]: 79.8%; viability at 72 h, 1000 µM [6]: 53.1%; inhibition at 30 µM (cells [7]): 20.4%; inhibition at 100 µM (cells [8]): 38.1%
C=C[C@H](OC(C)=O)c1ccc(OC(C)=O)cc1 [1'-ACETOXYCHAVICOL ACETATE] | 9.3 | 6.2 | 29.8 | 73.1 | 5.30 | 103 | 102 | 99.9 | 99.9 | >25 - 70 | 1 | 0.49 | 0.86 | 0.5 | 1.08 | 0.34 | –
C=C[C@H](OC/C=C/c1ccc(OC(C)=O)cc1)c1ccc(OC(C)=O)cc1 | -5.9 | 10 | 58.5 | 117 | 5.60 | 98.1 | 82.9 | 68.5 | 26.5 | >25 - 70 | 0.87 | 0.53 | 0.76 | 0.99 | 0.72 | 1.43 | –
